In PubChem BioAssay AID1259407 (Chemical Carcinogenesis Research Information System (CCRIS), 2018):
The source made the active and inactive calls. The rule behind the calls is not given here.

Test system: CCRIS mutagenicity, Ames/micronucleus/aberration tests
Assay: CCRIS mutagenicity studies
[1] = Test System: AMES SALMONELLA TYPHIMURIUM, Strain/Indicator: TA98, Metabolic Activation: NONE, Method: STANDARD PLATE
[2] = Test System: AMES SALMONELLA TYPHIMURIUM, Strain/Indicator: TA100, Metabolic Activation: NONE, Method: STANDARD PLATE

Question: For `CCCCCCCCS(=O)C(C)Cc1ccc2c(c1)OCO2` (stereo not given), which mutagenic call (End Point: IN VITRO CHROMOSOMAL ABERRATIONS, Test System: CHINESE HAMSTER OVARY CELLS, Metabolic Activation: NONE) is on record?
Answer: Its mutagenic call is “inactive; negative”.

Question: And the mutagenic call (End Point: IN VITRO CHROMOSOMAL ABERRATIONS, Test System: CHINESE HAMSTER OVARY CELLS, Metabolic Activation: RAT, LIVER, S-9, AROCLOR 1254)?
Answer: Its mutagenic call is “inactive; negative”.

Question: With `NC(CS)C(=O)O` (stereo not given) as the compound, how does the mutagenic call (Test System: AMES SALMONELLA TYPHIMURIUM, Strain/Indicator: TA98, Metabolic Activation: RAT LIVER S-9, CHLOROPHENE, Method: STANDARD PLATE (COMPOUND HEATED AT 250 DEGREES CELSIUS FOR 20 MIN)) read?
Answer: The mutagenic call was “inactive; negative”.

Question: Which results are given for `CC(=O)OCc1ccc2c(c1)OCO2`?
Answer: mutagenic call (Test System: AMES SALMONELLA TYPHIMURIUM, Strain/Indicator: TA98, Metabolic Activation: HAMSTER, LIVER, S-9, AROCLOR 1254 (10%), Method: PREINCUBATION): inactive; negative; mutagenic call (Test System: AMES SALMONELLA TYPHIMURIUM, Strain/Indicator: TA98, Metabolic Activation: NONE, Method: PREINCUBATION): inactive; negative; mutagenic call (Test System: AMES SALMONELLA TYPHIMURIUM, Strain/Indicator: TA98, Metabolic Activation: RAT, LIVER, S-9, AROCLOR 1254 (10%), Method: PREINCUBATION): inactive; negative; mutagenic call (Test System: AMES SALMONELLA TYPHIMURIUM, Strain/Indicator: TA100, Metabolic Activation: HAMSTER, LIVER, S-9, AROCLOR 1254 (10%), Method: PREINCUBATION): inactive; negative; mutagenic call (Test System: AMES SALMONELLA TYPHIMURIUM, Strain/Indicator: TA100, Metabolic Activation: NONE, Method: PREINCUBATION): inactive; negative; mutagenic call (Test System: AMES SALMONELLA TYPHIMURIUM, Strain/Indicator: TA100, Metabolic Activation: RAT, LIVER, S-9, AROCLOR 1254 (10%), Method: PREINCUBATION): inactive; negative; mutagenic call (Test System: AMES SALMONELLA TYPHIMURIUM, Strain/Indicator: TA1535, Metabolic Activation: HAMSTER, LIVER, S-9, AROCLOR 1254 (10%), Method: PREINCUBATION): inactive; negative; mutagenic call (Test System: AMES SALMONELLA TYPHIMURIUM, Strain/Indicator: TA1535, Metabolic Activation: NONE, Method: PREINCUBATION): inactive; negative; mutagenic call (Test System: AMES SALMONELLA TYPHIMURIUM, Strain/Indicator: TA1535, Metabolic Activation: RAT, LIVER, S-9, AROCLOR 1254 (10%), Method: PREINCUBATION): inactive; negative; mutagenic call (Test System: AMES SALMONELLA TYPHIMURIUM, Strain/Indicator: TA1537, Metabolic Activation: HAMSTER, LIVER, S-9, AROCLOR 1254 (10%), Method: PREINCUBATION): inactive; negative; mutagenic call (Test System: AMES SALMONELLA TYPHIMURIUM, Strain/Indicator: TA1537, Metabolic Activation: NONE, Method: PREINCUBATION): inactive; negative; mutagenic call (Test System: AMES SALMONELLA TYPHIMURIUM, Strain/Indicator: TA1537, Metabolic Activation: RAT, LIVER, S-9, AROCLOR 1254 (10%), Method: PREINCUBATION): inactive; negative

Question: Which results are given for `Nc1cc(-c2ccncc2)c[nH]c1=O`?
Answer: mutagenic call (Test System: AMES SALMONELLA TYPHIMURIUM, Strain/Indicator: TA97, Metabolic Activation: NONE): inactive; negative; mutagenic call (Test System: AMES SALMONELLA TYPHIMURIUM, Strain/Indicator: TA97, Metabolic Activation: S-9): inactive; negative; mutagenic call (Test System: AMES SALMONELLA TYPHIMURIUM, Strain/Indicator: TA98, Metabolic Activation: NONE): inactive; negative; mutagenic call [1]: inactive; negative; mutagenic call (Test System: AMES SALMONELLA TYPHIMURIUM, Strain/Indicator: TA98, Metabolic Activation: RAT, LIVER, S-9, Method: STANDARD PLATE): inactive; negative; mutagenic call (Test System: AMES SALMONELLA TYPHIMURIUM, Strain/Indicator: TA98, Metabolic Activation: S-9): inactive; negative; mutagenic call [2]: inactive; negative; mutagenic call (Test System: AMES SALMONELLA TYPHIMURIUM, Strain/Indicator: TA100, Metabolic Activation: RAT, LIVER, S-9, Method: STANDARD PLATE): inactive; negative; mutagenic call (Test System: AMES SALMONELLA TYPHIMURIUM, Strain/Indicator: TA100, Metabolic Activation: S-9): inactive; negative; mutagenic call (Test System: AMES SALMONELLA TYPHIMURIUM, Strain/Indicator: TA102, Metabolic Activation: NONE): inactive; negative; mutagenic call (Test System: AMES SALMONELLA TYPHIMURIUM, Strain/Indicator: TA102, Metabolic Activation: S-9): inactive; negative; mutagenic call (Test System: AMES SALMONELLA TYPHIMURIUM, Strain/Indicator: TA1535, Metabolic Activation: NONE, Method: STANDARD PLATE): inactive; negative; mutagenic call (Test System: AMES SALMONELLA TYPHIMURIUM, Strain/Indicator: TA1535, Metabolic Activation: RAT, LIVER, S-9, Method: STANDARD PLATE): inactive; negative; mutagenic call (Test System: AMES SALMONELLA TYPHIMURIUM, Strain/Indicator: TA1537, Metabolic Activation: NONE, Method: STANDARD PLATE): inactive; negative; mutagenic call (Test System: AMES SALMONELLA TYPHIMURIUM, Strain/Indicator: TA1537, Metabolic Activation: RAT, LIVER, S-9, Method: STANDARD PLATE): inactive; negative; mutagenic call (Test System: AMES SALMONELLA TYPHIMURIUM, Strain/Indicator: TA1538, Metabolic Activation: NONE, Method: STANDARD PLATE): inactive; negative; mutagenic call (Test System: AMES SALMONELLA TYPHIMURIUM, Strain/Indicator: TA1538, Metabolic Activation: RAT, LIVER, S-9, Method: STANDARD PLATE): inactive; negative

Question: Which mutagenic call (Test System: AMES SALMONELLA TYPHIMURIUM, Strain/Indicator: TA98, Metabolic Activation: RAT, LIVER, S-9, AROCLOR 1254, Method: PREINCUBATION) does the source give for `CCn1c(N)nc2c3ncc(C)nc3ccc21` here?
Answer: The mutagenic call was “active; positive”.

Question: How did the mutagenic call [1] turn out when `[N-]=[N+]=NC[C@@H]1O[C@H](O)[C@H](O)[C@@H](O)[C@@H]1O` was run?
Answer: Its mutagenic call is “inactive; negative”.

Question: What about the mutagenic call [2] of the same compound?
Answer: The mutagenic call was “active; positive”.
